From patent US9371365B2, “Modified compstatin with peptide backbone and C-terminal modifications” (The Trustees of the University of Pennsylvania, priority 2009, dated 2016)

Target: T1, C3b (Homo sapiens, UniProt P01024)
T1 construct: biotin (chemical biotinylation of C3b)
Experiment: SPR analysis of binding kinetics to immobilized C3b
Method: (§1) The kinetics of the interaction between C3b and each compstatin analog was analyzed by SPR on a Biacore 3000 instrument (GE Healthcare Corp., Piscataway, N.J.) at 25° C. using PBS-T (10 mM sodium phosphate, 150 mM NaCl, 0.005% Tween-20, pH 7.4) as the running buffer, as described above. In brief, biotinylated C3b (30 μg/mL) was immobilized on a streptavidin-coated sensor chip, and a two-fold serial dilution series (1 μM-500 pM) of each analog was injected for 2 min at 30 μl/min, with a dissociation phase of 5-10 min. Peptide [Trp(Me)^4]-Ac-compstatin was included in each experimental series as an internal control and reference. Data analysis was performed using Scrubber (BioLogic Software, Campbell, Australia). The signals from an untreated flow cell and an ensemble of buffer blank injections were subtracted to correct for buffer effects and injection artifacts. Processed biosensor data were globally fitted to a 1:1 Langmuir binding model, and the equilibrium dissociation constant (KD) was calculated from the equation KD=kd/ka. Peptide solutions were injected in duplicate in every experiment, and each screening assay was performed at least twice.
as §1, with “in Example 1.” for “above.”, “μg/ml)” for “μg/mL)”, “Peptide [Trp(Me)^4]-Ac-compstatin was included in each experimental series as an internal control and reference.” left out

T1 sequence (P01024 23-667 limits assumed): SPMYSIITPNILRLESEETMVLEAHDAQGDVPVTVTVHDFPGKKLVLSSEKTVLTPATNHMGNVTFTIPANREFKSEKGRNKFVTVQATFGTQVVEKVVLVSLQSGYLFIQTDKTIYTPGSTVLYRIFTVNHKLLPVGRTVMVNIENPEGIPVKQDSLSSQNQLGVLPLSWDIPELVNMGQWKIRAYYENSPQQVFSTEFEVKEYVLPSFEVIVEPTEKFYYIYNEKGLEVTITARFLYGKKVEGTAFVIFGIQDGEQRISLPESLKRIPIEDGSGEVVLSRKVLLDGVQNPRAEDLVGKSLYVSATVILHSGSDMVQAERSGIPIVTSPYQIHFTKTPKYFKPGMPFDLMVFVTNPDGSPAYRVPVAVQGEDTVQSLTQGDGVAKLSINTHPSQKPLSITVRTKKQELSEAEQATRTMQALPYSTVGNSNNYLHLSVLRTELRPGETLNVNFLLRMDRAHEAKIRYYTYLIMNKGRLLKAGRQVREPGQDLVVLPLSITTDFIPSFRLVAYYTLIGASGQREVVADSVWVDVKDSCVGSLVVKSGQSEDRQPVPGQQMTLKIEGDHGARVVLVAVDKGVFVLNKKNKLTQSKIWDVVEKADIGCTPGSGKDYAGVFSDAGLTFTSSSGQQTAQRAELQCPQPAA
T1 sequence (P01024 749-1663 limits assumed): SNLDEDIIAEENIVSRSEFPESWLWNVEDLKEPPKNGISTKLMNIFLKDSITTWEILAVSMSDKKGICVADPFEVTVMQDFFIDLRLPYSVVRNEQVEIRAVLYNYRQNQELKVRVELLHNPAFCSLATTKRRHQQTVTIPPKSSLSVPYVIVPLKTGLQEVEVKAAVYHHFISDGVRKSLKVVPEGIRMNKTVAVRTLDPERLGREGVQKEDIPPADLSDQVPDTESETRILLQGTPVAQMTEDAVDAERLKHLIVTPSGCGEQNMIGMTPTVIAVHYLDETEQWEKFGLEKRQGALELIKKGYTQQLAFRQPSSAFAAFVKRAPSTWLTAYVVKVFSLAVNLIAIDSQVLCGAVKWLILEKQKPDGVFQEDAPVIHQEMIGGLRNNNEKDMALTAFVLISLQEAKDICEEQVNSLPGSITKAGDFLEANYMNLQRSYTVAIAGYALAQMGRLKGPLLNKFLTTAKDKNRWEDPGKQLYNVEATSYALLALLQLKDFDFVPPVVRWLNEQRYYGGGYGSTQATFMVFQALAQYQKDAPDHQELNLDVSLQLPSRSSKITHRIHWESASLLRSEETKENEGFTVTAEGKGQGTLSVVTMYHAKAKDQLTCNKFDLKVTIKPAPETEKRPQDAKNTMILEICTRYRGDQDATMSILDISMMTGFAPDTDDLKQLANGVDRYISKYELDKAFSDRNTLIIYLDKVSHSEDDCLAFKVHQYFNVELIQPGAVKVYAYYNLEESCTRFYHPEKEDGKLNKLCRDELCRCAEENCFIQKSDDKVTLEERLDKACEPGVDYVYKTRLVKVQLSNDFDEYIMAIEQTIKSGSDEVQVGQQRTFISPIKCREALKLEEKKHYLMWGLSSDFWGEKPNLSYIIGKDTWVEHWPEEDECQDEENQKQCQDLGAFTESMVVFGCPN

For CC[C@H](C)[C@H](NC(=O)[C@@H]1CSSC[C@H](NC(=O)[C@@H](NC(C)=O)[C@@H](C)CC)C(=O)N[C@@H](C(C)C)C(=O)N[C@@H](Cc2cn(C)c3ccccc23)C(=O)N[C@@H](CCC(N)=O)C(=O)N[C@@H](CC(=O)O)C(=O)N[C@@H](Cc2c[nH]c3ccccc23)C(=O)N(C)CC(=O)N[C@@H](C)C(=O)N[C@@H](Cc2c[nH]cn2)C(=O)N[C@@H](CCCNC(=N)N)C(=O)N1)C(N)=O [Peptide 17, Ac−Ic[CV(^1−MeW)QDW(^N−MeG)AHRC]I-NH2], the “fold stronger affinity than peptide 14” value (SPR) was 2.7 fold, the kd (SPR, 25° C., PBS-T) was 6.6 10^−3/s and the Koff (SPR, Table 2-1) was 6.6 10^−3, s^−1. For the same compound, the Kon (SPR, Table 2-1) was 1.0 10^6, M^−1 · s^−1, the kon (pH 7.4, read-out: ka) was 1.5e+06 M⁻¹ s⁻¹ and the “rKD SPR” value (relative to peptide 14) was 2.7. The rka (relative to peptide 14) was 1.5 and the rkd (relative to peptide 14) was 1.7.
